Measured values: US10456410B2, “Hydrogen sulfide (H2S) releasing donor compound for dermal wound regeneration” (University of South Carolina, priority 2017, dated 2019)

Assays:
[1] = H2S release kinetics from PCL-JK-1 fibrous scaffold, modified Methylene Blue method; settings: pH 6.0, PBS; PCL-JK-1 with 10% JK-1, JK-1 in solution as control (FIG. 4B)
[2] = H2S release from SA/JK-1 sponge at varied pH; settings: pH 6.0

O=C([O-])CNP([O-])(=S)c1ccccc1.[Li+].[Li+] (centres unmarked) [JK-1]
time to H2S peak concentration [1]: ≤ 10 min | time to H2S peak concentration [2]: ≤ 55 min
